From patent publication US4575560A, “Insecticidal diaminoguanidine hydrazone compounds” (American Cyanamid Company, priority 1985, dated 1986)
Structures can show the parent of a compound that is named as a salt.

What was measured:
Southern Armyworm = assay: Southern armyworm test, third-instar larvae on treated Sieva lima bean leaves; type: in vivo, Spodoptera eridania (Cramer); details: for Mortality Rating Southern Armyworm: third-instar larvae
Description: Test formulations and procedures used for evaluation are as follows:
A. 100 mg of the test material is weighed, placed in a funnel over a 113 g narrow-mouth bottle, rinsed into the bottle with a 35 mL scoop of acetone, followed by a 35 mL scoop of water and another 35 mL scoop of acetone to yield 1000 ppm in 65% acetone. If the material is not soluble, it is broken up with a glass rod and used as a suspension.
B. This stock solution ("A") is used to make 300 ppm solutions or suspensions by pipetting 30 mL of "A" into a bottle containing 70 mL of 50% acetone to yield 300 ppm. Further dilutions in 50% acetone are made as required.
C. Tests requiring 10 ppm acetone solutions: 1 mL of "A" is pipetted into 99 mL of acetone to yield 10 ppm. Additional dilutions are made using 50% acetone as required.
Southern Armyworm--Spodoptera eridania (Cramer)
A Sieva lima bean plant with just the primary leaves expanded to 1.91 cm is dipped for three seconds with agitation in the "A" solution of 1000 ppm and set in the hood to dry. Following this, one leaf is placed in a 9 cm petri dish which has a moist filter paper in the bottom and 10 third-instar armyworm larvae about 1 cm long. This dish is covered and held at 80° F., and 50% r.h. After two days, mortality counts and estimates of the amount of feeding are made. Compounds showing partial kill and/or inhibition of feeding are held for an extra day for further observations.
All compounds showing activity as defined above are retested, using the second leaf on the bean plant, after an interval of seven days from original treatment, as an assay of residual activity.

[1] = tested on: Tobacco Budworm 3rd Instar; assay: Tobacco budworm secondary test, third-instar larvae on treated cotton cotyledons; type: in vivo, Heliothis virescens (Fabricus)
Description: Tobacco Budworm--Heliothis virescens (Fabricus)
Three cotton plants with just expanded cotyledons are dipped in 1000 ppm solution and placed in the hood to dry. When dry, each cotyledon is cut in half, and 10 are each placed in a 28 g plastic medicine cup containing a 1.25 cm dental wick saturated with water, and one third-instar budworm larva is added. The cup is capped and held for three days at 80° F., 50% relative humidity, after which mortality counts are made.

Row | Compound | Mortality Rating Southern Armyworm (Southern Armyworm; 10 ppm) | Mortality Rating Southern Armyworm (Southern Armyworm; 100 ppm) | Mortality Rating Southern Armyworm (Southern Armyworm; 1000 ppm) | Mortality Rating Tobacco Budworm 3rd Instar ([1]; 100 ppm) | Mortality Rating Tobacco Budworm 3rd Instar ([1]; 1000 ppm) | reduced feeding (R) Southern Armyworm (Southern Armyworm; 100 ppm) | reduced feeding (R) Southern Armyworm (Southern Armyworm; 1000 ppm) | reduced feeding (R) Tobacco Budworm 3rd Instar ([1]; 100 ppm) | reduced feeding (R) Tobacco Budworm 3rd Instar ([1]; 1000 ppm) | Mortality Rating Tobacco Budworm 3rd Instar ([1]; 10 ppm) | reduced feeding (R) Tobacco Budworm 3rd Instar ([1]; 10 ppm)
1 | CC(C)OC(=O)N(N=Cc1ccc(OC(F)(F)C(F)F)cc1)C(=N)NN=Cc1ccc(OC(F)(F)C(F)F)cc1 [HCF2 CF2 O / HCF2 CF2 O / -i-C3 H7] | 0 (No effect) | 9 (100%) | 9 (100%) | 0 (No effect) | 5 (56-65%) |  |  |  |  |  | 
2 | N=C(NN=Cc1ccc(Cl)cc1)NN=Cc1ccc(Cl)cc1 [Cl / HCl] | 0 (No effect) | 0 (No effect) |  |  | 0 (No effect) | R | R |  |  |  | 
3 | CCC(C)OC(=O)N(N=Cc1ccc(C(F)(F)F)cc1)C(=N)NN=Cc1ccc(C(F)(F)F)cc1 (centres unmarked) [CF3 / CF3 / drawing 54] | 6 (66-75%) | 9 (100%) | 9 (100%) | 0 (No effect) | 6 (66-75%) |  |  | R | R |  | 
4 | CCN(CC)C(=O)N(N=Cc1ccc(OC(F)(F)C(F)F)cc1)C(=N)NN=Cc1ccc(OC(F)(F)C(F)F)cc1 [HCF2 CF2 O / HCF2 CF2 O / C2 H5 / C2 H5] | 1 (11-25%) | 9 (100%) | 9 (100%) | 0 (No effect) | 5 (56-65%) |  |  |  |  | 0 (No effect) | 
5 | CCCOC(=O)N(N=Cc1ccc(C(F)(F)F)cc1)C(=N)NN=Cc1ccc(C(F)(F)F)cc1 [CF3 / CF3 / -n-C3 H7] | 4 (46-55%) | 9 (100%) | 9 (100%) |  | 0 (No effect) |  |  |  |  |  | 
6 | CCOC(=O)N(N=Cc1ccc(C(F)(F)F)cc1)C(=N)NN=Cc1ccc(C(F)(F)F)cc1 [CF3 / CF3 / C2 H5, 3-[p-(trifluoromethyl)benzylidene]-2-{{[p-(trifluoromethyl)benzylidene]amino}amidino}carbazate] | 9 (100%) | 7 (76-85%) | 9 (100%) |  |  |  |  |  |  |  | 
7 | N=C(NN=Cc1ccc(OC(F)(F)F)cc1)N(N=Cc1ccc(OC(F)(F)F)cc1)C(=O)OCC(Cl)(Cl)Cl [CF3 O / CF3 O / Cl3 CCH2] | 9 (100%) | 9 (100%) | 9 (100%) | 1 (11-25%) | 0 (No effect) |  |  | R | R |  | 
8 | N=C(NN=Cc1ccc(OC(F)(F)C(F)Cl)cc1)NN=Cc1ccc(OC(F)(F)C(F)Cl)cc1 (centres unmarked) [drawing 44 / S] | 6 (66-75%) | 9 (100%) | 9 (100%) | 0 (No effect) | 9 (100%) |  |  | R | R | 0 (No effect) | R
9 | CCOC(=O)N(N=Cc1ccc(Cl)cc1)C(=N)NN=Cc1ccc(Cl)cc1 [Cl / Cl / C2 H5] |  | 9 (100%) | 8 (86-99%) |  |  |  |  |  |  |  | 
10 | N=C(NN=Cc1ccc(Cl)cc1)NN=Cc1ccc(OC(F)(F)C(F)F)cc1 [Cl / HCF2 CF2 O / S] |  |  |  |  | 0 (No effect) |  |  |  | R |  | 
11 | N=C(NN=Cc1ccc(SC(F)(F)C(F)F)cc1)NN=Cc1ccc(SC(F)(F)C(F)F)cc1 [HCF2 CF2 S / S] | 6 (66-75%) |  |  |  |  |  |  |  |  |  | 
12 | COC(=O)N(N=Cc1ccc(OC(F)(F)C(F)F)cc1)C(=N)NN=Cc1ccc(OC(F)(F)C(F)F)cc1 [HCF2 CF2 O / HCF2 CF2 O / CH3] |  | 9 (100%) | 9 (100%) |  |  |  |  |  |  |  | 
